In ChEMBL document CHEMBL4334513, “Discovery of a Potent, Selective, and Orally Available MTHFD2 Inhibitor (DS18561882) with in Vivo Antitumor Activity” (J Med Chem, 2019):
Converted amounts (≈) assume the structure as drawn.

Key:
[1] = Effective permeability of compound at pH 7.4 by PAMPA; assay type: ADME; settings: read-out: Peff
[2] = Lipophilicity, logP of compound; assay type: physicochemical; settings: octanol/water
[3] = Antiproliferative activity against human MDA-MB-231-luc-D3H2LN cells assessed as inhibition of growth after 3 days by CellTiter Glo assay; assay type: functional; settings: 72 h
[4] = Lipophilicity, logD of compound; assay type: physicochemical; settings: octanol/water
[5] = AUC in BALBc mouse at 10 mg/kg, po measured for 24 hrs by LC-MS/MS analysis; assay type: ADME, organism-based; settings: in vivo
[6] = AUC in BALBc mouse at 100 mg/kg, po measured for 24 hrs by LC-MS/MS analysis; assay type: ADME, organism-based; settings: in vivo
[7] = AUC in BALBc mouse at 30 mg/kg, po measured for 24 hrs by LC-MS/MS analysis; assay type: ADME, organism-based; settings: in vivo
[8] = AUC in BALBc mouse at 300 mg/kg, po measured for 24 hrs by LC-MS/MS analysis; assay type: ADME, organism-based; settings: in vivo
[9] = Cmax in BALBc mouse at 10 mg/kg, po measured for 24 hrs by LC-MS/MS analysis; assay type: ADME, organism-based; set-up: dose 10 mg/kg, route oral; settings: in vivo
[10] = Cmax in BALBc mouse at 30 mg/kg, po measured for 24 hrs by LC-MS/MS analysis; assay type: ADME, organism-based; set-up: dose 30 mg/kg, route oral; settings: in vivo
[11] = Cmax in BALBc mouse at 100 mg/kg, po measured for 24 hrs by LC-MS/MS analysis; assay type: ADME, organism-based; set-up: dose 100 mg/kg, route oral; settings: in vivo
[12] = Cmax in BALBc mouse at 300 mg/kg, po measured for 24 hrs by LC-MS/MS analysis; assay type: ADME, organism-based; set-up: dose 300 mg/kg, route oral; settings: in vivo
[13] = Half life in BALBc mouse at 10 mg/kg, po measured for 24 hrs by LC-MS/MS analysis; assay type: ADME, organism-based; settings: in vivo
[14] = Half life in BALBc mouse at 30 mg/kg, po measured for 24 hrs by LC-MS/MS analysis; assay type: ADME, organism-based; settings: in vivo
[15] = Half life in BALBc mouse at 100 mg/kg, po measured for 24 hrs by LC-MS/MS analysis; assay type: ADME, organism-based; settings: in vivo
[16] = Half life in BALBc mouse at 300 mg/kg, po measured for 24 hrs by LC-MS/MS analysis; assay type: ADME, organism-based; settings: in vivo
[17] = Effective permeability of compound at pH 5 by PAMPA; assay type: ADME; settings: read-out: Peff
[18] = Solubility of compound in pH 1.2; assay type: physicochemical; settings: buffer
[19] = Solubility of compound in pH 6.8; assay type: physicochemical; settings: buffer
[20] = Metabolic stability in mouse liver microsomes assessed as remaining parent compound at 1 uM after 0.5 hrs; assay type: ADME, Microsome; settings: read-out: Stability
[21] = Fraction unbound in mouse plasma; assay type: ADME, cell-free
[22] = Free plasma concentration in BALBc mouse at 10 to 300 mg/kg, po measured after 24 hrs by LC-MS/MS analysis; assay type: ADME, organism-based; settings: in vivo
[23] = Antitumor activity against human MDA-MB-231-Luc cells xenografted in BALB/cAJcl nu/nu mouse assessed as tumour growth inhibition at 300 mg/kg, po administered bid for 11 days and measured every 2 to 3 days relative to control; assay type: functional; settings: read-out: TGI
[24] = Toxicity in BALB/cAJcl nu/nu mouse xenografted with human MDA-MB-231-Luc cells assessed as body weight loss at 30 to 300 mg/kg, po administered bid for 11 days and measured every 1 to 2 days; assay type: organism-based; settings: in vivo

Description for Homo sapiens: Antitumor activity against human MDA-MB-231-Luc cells xenografted in orally dosed BALB/cAJcl nu/nu mouse assessed as tumour growth inhibition administered bid for 11 days and measured every 2 to 3 days relative to control

## Cc1c(N2CCN(C)[C@@H](C)C2)ccc2c3c(c(=O)oc12)CN(C(=O)c1ccc(NS(C)(=O)=O)c(OC(F)(F)F)c1)CC3
[1]
  Papp: > 50 ×10⁻⁶ cm/s
[2]
  logP: 2.1
[3]
  GI50: 0.34 µM
[4]
  logD: 1.9
[5]
  AUC at 24 h: 64.4 µg·h/mL
[6]
  AUC at 24 h: 726 µg·h/mL
[7]
  AUC at 24 h: 264 µg·h/mL
[8]
  AUC at 24 h: 1630 µg·h/mL
[9]
  Cmax: 11.4 µg/mL
[10]
  Cmax: 56.5 µg/mL
[11]
  Cmax: 90.1 µg/mL
[12]
  Cmax: 143 µg/mL
[13]
  half-life: 2.21 h
[14]
  half-life: 2.16 h
[15]
  half-life: 2.32 h
[16]
  half-life: 4 h
[17]
  Papp: 17.2 ×10⁻⁶ cm/s
[18]
  solubility: 1100 µg/mL (≈ 1810 µM)
[19]
  solubility: 630 µg/mL (≈ 1040 µM)
[20]
  remaining at 0.5 h, 1 µM: 66%
[21]
  fraction unbound: 0.031
[22]
  Cp(f): 0 ng/mL
[23]
  inhibition in vivo at 300 mg/kg: 67%
[24]
  Activity: Non-Toxic
Homo sapiens
  TGI: Dose-dependent effect
